Reference: patent US6599943B1, “Use of hydroxyguanidines” (WaPharm AB, priority 1996, dated 2003)
Where a name gives a salt, the structure may show the parent alone.

target: bovine milk xanthine oxidase (Bos taurus, UniProt P80457); experiment: Capacity to sustain oxidation of xanthine by xanthine oxidase in the absence of oxygen, spectrophotometric; format: biochemical; design: host or cells: bovine milk; conditions: 50 μM hydroxyguanidine, 50 μM xanthine, 0.05 units/ml xanthine oxidase, anaerobic, pH 7.5, 20° C., blank subtracted
Method: Capacities of a series of hydroxyguanidine to sustain the oxidation of xanthine by xanthine oxidase in the absence of oxygen. The capacities of various hydroxyguanidines to sustain the oxidation of xanthine was assayed by using a spectrophotometric method. In this method bovine milk xanthine oxidase was injected to a Helma® sealable cuvette for anaerobic application thereby creating 1 ml of a reaction mixture that contained reagents as follows: 50 μM of a hydroxyguanidine, 50 μM xanthine, 0.05 units/ml bovine milk xanthine oxidase, 50 mM Tris and 1.5 mM EDTA; the pH of the reaction mixture being 7.5, and the temperature 20° C. Anaerobic conditions were assured by pre-gassing all solutions used for 5-10 min, with nitrogen. The rate of formation of uric acid was monitored spectrophotometrically by measuring the increase in absorbance at 295 nm (the absorption maximum for uric acid) at intervals. The relative capacities of the hydroxyguanidines to sustain oxidation of xanthine were estimated from the derivative of the initial linear phase of the curves. To obtain blank readings an equal volume of the solvent of the hydroxyguanidine (water) was added to the reaction mixture in separate experiments and the initial rate of absorbance change was substracted from the rate readings of the tested hydroxyguanidine.
Exemplary initial rates for the rate of the support of the oxidation of xanthine obtained by assaying the exemplary hydroxyguanidines listed above by the method in the present example are furthermore given in Table 2: […]

Chain of bovine milk xanthine oxidase (P80457 whole entry): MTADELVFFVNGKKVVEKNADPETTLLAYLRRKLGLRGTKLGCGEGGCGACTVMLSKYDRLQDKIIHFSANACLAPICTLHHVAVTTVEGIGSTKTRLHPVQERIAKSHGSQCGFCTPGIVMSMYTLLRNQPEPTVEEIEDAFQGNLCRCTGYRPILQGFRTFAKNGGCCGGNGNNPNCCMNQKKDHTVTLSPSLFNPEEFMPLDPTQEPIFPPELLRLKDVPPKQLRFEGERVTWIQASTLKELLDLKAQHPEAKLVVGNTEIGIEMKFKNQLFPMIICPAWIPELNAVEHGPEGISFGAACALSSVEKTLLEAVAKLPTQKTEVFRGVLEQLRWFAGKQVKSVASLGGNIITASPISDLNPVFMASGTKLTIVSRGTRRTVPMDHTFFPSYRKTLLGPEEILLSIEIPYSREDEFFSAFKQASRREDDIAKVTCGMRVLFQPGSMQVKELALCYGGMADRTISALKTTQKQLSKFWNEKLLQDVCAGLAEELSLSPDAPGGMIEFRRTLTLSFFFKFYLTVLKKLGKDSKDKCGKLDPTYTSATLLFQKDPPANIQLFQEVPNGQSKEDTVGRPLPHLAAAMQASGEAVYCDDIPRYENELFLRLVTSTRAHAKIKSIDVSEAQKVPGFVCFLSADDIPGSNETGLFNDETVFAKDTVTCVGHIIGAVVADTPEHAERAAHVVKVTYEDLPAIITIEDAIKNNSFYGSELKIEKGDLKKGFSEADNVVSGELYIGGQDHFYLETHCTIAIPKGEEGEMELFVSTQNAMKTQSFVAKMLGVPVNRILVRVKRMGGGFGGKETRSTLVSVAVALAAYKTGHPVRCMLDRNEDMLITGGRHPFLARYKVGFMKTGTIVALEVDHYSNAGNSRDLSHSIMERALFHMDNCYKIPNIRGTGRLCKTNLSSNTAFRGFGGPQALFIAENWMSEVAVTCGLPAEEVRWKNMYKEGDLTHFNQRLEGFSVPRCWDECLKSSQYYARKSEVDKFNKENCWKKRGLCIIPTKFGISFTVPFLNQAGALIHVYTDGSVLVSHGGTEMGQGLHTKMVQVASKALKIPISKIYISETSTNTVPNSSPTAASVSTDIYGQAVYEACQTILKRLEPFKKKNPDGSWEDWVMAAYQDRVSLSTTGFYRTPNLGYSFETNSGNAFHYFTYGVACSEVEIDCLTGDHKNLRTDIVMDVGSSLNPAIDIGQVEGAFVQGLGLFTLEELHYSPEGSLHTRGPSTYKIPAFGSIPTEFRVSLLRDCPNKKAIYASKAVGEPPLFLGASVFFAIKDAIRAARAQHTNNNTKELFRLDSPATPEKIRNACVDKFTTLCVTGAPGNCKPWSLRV

Row | Structure (SMILES) | V = 1000 × (Δabs 295 nm) min^−1 (initial rate of the support of the oxidation of xanthine)
1 | N=C(NN)NO [Aminohydroxyguanidine, 1-amino-3-hydroxyguanidine, reference compound] | 1.4 1000 × (Δabs 295 nm) min^−1
2 | COc1ccc(/C=N/NC(=N)NO)cc1OC [DWO1, reference compound] | 40 1000 × (Δabs 295 nm) min^−1
3 | COc1ccc(/C=N/NC(=N)NO)c(OC)c1C [DWO2, reference compound] | 30.7 1000 × (Δabs 295 nm) min^−1
4 | COc1ccc(/C=N/NC(=N)NO)cc1O [DWO4, reference compound] | 36.7 1000 × (Δabs 295 nm) min^−1
5 | COc1ccc(/C=N/NC(=N)NO)c(Cl)c1O [DWO5, reference compound] | 59.7 1000 × (Δabs 295 nm) min^−1
6 | COc1cc(Br)c(/C=N/NC(=N)NO)cc1OC [DWO6, reference compound] | 30.7 1000 × (Δabs 295 nm) min^−1
7 | COc1ccc(/C=N/NC(=N)NO)cc1F [DWO7, reference compound] | 30.7 1000 × (Δabs 295 nm) min^−1
8 | COc1cc(/C=N/NC(=N)NO)c([N+](=O)[O-])cc1OC [DWO8, reference compound] | 45.4 1000 × (Δabs 295 nm) min^−1
9 | CC(=C/c1ccccc1)/C=N/NC(=N)NO [EN20] | 44 1000 × (Δabs 295 nm) min^−1
10 | N=C(N)NO [Hydroxyguanidine, N-hydroxyguanidine] | 0.7 1000 × (Δabs 295 nm) min^−1
11 | N=C(NO)N/N=C1\C(=O)Nc2ccc(F)cc21 [LT5, reference compound] | 50 1000 × (Δabs 295 nm) min^−1
12 | COc1cccc(/C=N/NC(=N)NO)c1 [LT11, reference compound] | 26 1000 × (Δabs 295 nm) min^−1
13 | N=C(NO)N/N=C/c1c2ccccc2c(Cl)c2ccccc12 [LW01, reference compound] | 0 1000 × (Δabs 295 nm) min^−1

The remaining lines, values ahead:

Row | V = 1000 × (Δabs 295 nm) min^−1 (initial rate of the support of the oxidation of xanthine) | Structure (SMILES)
14 | 29.4 1000 × (Δabs 295 nm) min^−1 | COc1ccc(/C=N/NC(=N)NO)c(OC)c1 [DWO3, reference compound]
15 | 22 1000 × (Δabs 295 nm) min^−1 | COc1ccc(C=NNC(=N)NO)cc1Br [EN10, N-(3-Bromo-4-methoxybenzylideneamino)-N′-hydroxyguanidine tosylate]
16 | 11 1000 × (Δabs 295 nm) min^−1 | N=C(NO)NN=Cc1ccc(C(F)(F)F)cc1 [EN12, N-(4-Trifluoromethylbenzylideneamino)-N′-hydroxyguanidine tosylate]
17 | 66 1000 × (Δabs 295 nm) min^−1 | N=C(NO)N/N=C\C=C/c1ccccc1 [EN16, N-(3-Phenylpropenyleneamino)-N′-hydroxyguanidine tosylate]
18 | 5 1000 × (Δabs 295 nm) min^−1 | Cc1cc2oc(/C=N/NC(=N)NO)cc(=O)c2cc1Cl [EN18, N-(6-Chloro-7-methyl-4oxo-4H-1-benzopyran-3-methyleneamino)-N′-hydroxyguanidine tosylate]
19 | 12 1000 × (Δabs 295 nm) min^−1 | CCCCCCOc1cccc(/C=N/NC(=N)NO)c1 [LT7, reference compound]
20 | 3 1000 × (Δabs 295 nm) min^−1 | N=C(NO)N/N=C/C1CCCCC1 [LT10, reference compound]
21 | 55 1000 × (Δabs 295 nm) min^−1 | N=C(NO)N/N=C/c1ccc2c(c1)OCCO2 [LW04, reference compound]

same assay, conditions: as disclosed in Example 7

Row | activity / capacity to undergo reduction (reaction A), in words | Structure (SMILES)
22 | moderate capacity | COc1ccc(/C=N/NC(=N)NO)c(OC)c1 [DWO3, reference compound]
